We go through five molecules from publication PMC5494507, “γ‐Secretase inhibitors in cancer clinical trials are pharmacologically and functionally distinct” (EMBO Molecular Medicine, 2017).

The subject of one assay is cAPPC100sub. Put plainly: Cell-based γ-secretase cleavage assay, cAPPC100sub stably overexpressing cells (Aβ ELISA). The conditions noted are these: for low-dose potentiation of cleavage, cAPPC100sub: cAPPC100sub overexpressing cells. The source says: We next tested all GSIs on cAPPC100sub and full‐length APP stably overexpressing cells. […] The low‐dose potentiation of γ‐secretase cleavage was further mechanistically probed using in vitro assays with recombinant substrates and IP‐MS.
(§1) For the cell‐based assay, all substrates contain a human NOTCH4 signal peptide sequence ([…]), amyloid β peptide (Aβ1–25/K16A) epitope tag followed by the juxtamembrane region (JMD) of the given substrate and a FLAG tag ([…]) at the COOH‐terminal. K16A mutant was created to decrease potential α‐secretase cleavage. The cDNAs were generated by gene synthesis conducted by Genscript. A schematic representation of the substrates is provided in Fig 4A, and sequences of the cDNAs and the proteins are provided in Appendix Fig S6. For clarity, these substrates are referred to as cell‐based assay substrates (e.g., NOTCH1 is cNOTCH1sub). Substrate cDNAs were cloned into pCDNA3.1 (Invitrogen, Carlsbad, CA, USA) for expression in H4 cells (ATCC, Manassas, VA).
(§2) H4 cells were cultured in Opti‐mem media (Thermo‐Fisher) supplemented with Hyclone 6% fetal bovine serum (GE, Logan, Utah, USA) and 1% penicillin/streptomycin (Life Technologies, Grand Island, NY, USA). pCDNA3.1 plasmids containing the substrate cDNAs were transfected into H4 cells using FuGENE HD reagent (Madison, WI, USA). Stable cell lines were established using G418 selection. […] Cells and conditioned media were used for WB, IP, and ELISA.
(§3) Sandwich ELISAs used for Aβ detection were performed as previously described (Murphy et al, 1999; Ran et al, 2014). Briefly, Aβ and Aβ‐like peptides in conditioned media were captured with Ab5 antibody and detected with horseradish peroxidase labeled mAb 4G8 (Biolegend). Synthetic Aβ1‐40 was used as standard. All ELISAs were developed with TMB substrate (KPL, Gaithersburg, Maryland, USA). Bis‐Tris precast gels (Biorad, Hercules, CA, USA) were used for all SDS–PAGE. Monoclonal anti‐FLAG M2 antibody (Sigma) and Aβ1‐16 antibody 6E10 (Covance) were used for Western blotting at 1:1,000 dilution. Anti‐CD74 In‐1 antibody (BD Bioscience, San Jose, CA, USA) was used for A20 cell lysate Western blotting at dilution of 1:1,000. MDA‐MB‐231 cell extracts were prepared by lysing cells in RIPA buffer containing protease and phosphatase inhibitors. The lysates were kept on ice for 30 min and vortexed every 10 min, and then centrifuged at 4°C for 10 min at 1,000 g. The supernatants were collected, and protein concentrations were determined by Bradford Assay. Pan‐NOTCH1 antibody (C‐20) (Santa Cruz Biotechnology) and cleaved NOTCH1 (Val1744) antibody ([…]) were used at 1:500 and 1:100 dilution in the test of endogenous NOTCH1 inhibition with β‐actin expression used as loading control. β‐actin antibody was used at 1:1,000 dilution (Sigma). Band intensities normalized for actin using densitometry analysis with ImageJ Software (NIH, USA).

The target of another assay is T1, SPPL2a (Mus musculus, UniProt Q9JJF9).
T1 construct: To verify the finding in a non‐overexpressing cell line; endogenous in cells; host or cells: A20 (ATCC TIB-208)
T1 sequence (Q9JJF9 26-523): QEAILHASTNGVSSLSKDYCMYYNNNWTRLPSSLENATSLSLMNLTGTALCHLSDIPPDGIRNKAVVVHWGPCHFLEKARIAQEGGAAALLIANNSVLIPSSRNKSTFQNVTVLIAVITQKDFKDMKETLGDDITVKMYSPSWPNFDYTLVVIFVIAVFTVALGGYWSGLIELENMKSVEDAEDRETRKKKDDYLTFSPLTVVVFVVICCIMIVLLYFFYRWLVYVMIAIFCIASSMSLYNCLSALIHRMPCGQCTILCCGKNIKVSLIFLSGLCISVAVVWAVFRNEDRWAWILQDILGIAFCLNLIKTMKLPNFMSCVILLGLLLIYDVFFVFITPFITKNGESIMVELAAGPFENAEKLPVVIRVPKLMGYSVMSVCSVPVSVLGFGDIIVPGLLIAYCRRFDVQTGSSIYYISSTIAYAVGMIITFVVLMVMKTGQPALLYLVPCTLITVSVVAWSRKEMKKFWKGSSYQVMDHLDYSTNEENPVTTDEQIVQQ
Put plainly: Endogenous CD74 P8 turnover in A20 cells (Western blot, In-1 antibody), biomarker for SPPL2a cleavage. The assay is classed as cell-based. The conditions noted are these: 16 h. Here is the method:
To verify the finding in a non‐overexpressing cell line, we applied the inhibitors to the mouse B lymphocyte cell line A20 (ATCC TIB‐208).
SPPL2a, SPPL2b, SPP, and chimeric substrate FBA were generated as previously described (Ran et al, 2015). A20 cells (TIB‐208; ATCC, Manassas, VA, USA) were cultured in RPMI‐1640 medium (ATCC) supplied with 10% fetal bovine serum, 1% penicillin/streptomycin, and 0.05 mM 2‐mercaptoethanol (Life Technologies). Various concentrations of GSIs and (ZLL)2‐ketone as indicated in figures were applied to transfected HEK 293t cells at 70–90% confluence or A20 cells at a density of 5 × 10^5 cells/ml with fresh media in 48‐well format for 16 h. Cells and conditioned media were used for WB, IP, and ELISA.
as §3

A further assay deals with cNOTCH2sub (Homo sapiens, UniProt P49768). Put plainly: Cell-based γ-secretase cleavage assay, cNOTCH2sub in H4 cells (Aβ-like peptide ELISA). The conditions noted are these: rank among the six GSIs, number in brackets. Here is the method: Using these cell‐based γ‐secretase cleavage assays, we systematically investigated the substrate inhibition profile of BMS‐906024, MK‐0752, PF‐308414, RO4929097, Semagacestat, and DAPT. We treated H4 cells stably expressing cNOTCH1‐4sub with 4 pM to 10 μM of GSIs (Fig 5A and Table 2) and measured the Aβ‐like peptide secreted into the media.
as §1, §2, §3

A further assay concerns NOTCH. Set-up: method as in ref Appendix Table S1 (Gavai et al, 2015; Cook et al, 2010; Krop et al, 2012; Wei et al, 2010; Luistro et al, 2009; Mitani et al, 2012). The conditions noted are these: ref Appendix Table S1 (Gavai et al, 2015; Cook et al, 2010; Krop et al, 2012; Wei et al, 2010; Luistro et al, 2009; Mitani et al, 2012); read-out: Reported IC50s NOTCH; cited from earlier work.

The mark [1] stands for this setting: stably overexpressing cells, Aβ ELISA, read-out: IC50 cC100sub.
Where [2] appears, read: value in parentheses, read-out: IC50 cC100sub, from curves excluding the Aβ level > 120%.

Like-named read-outs stand apart in the source and are kept apart here.

`CN1C(=O)[C@@H](NC(=O)[C@H](CCC(F)(F)F)[C@H](CCC(F)(F)F)C(N)=O)N=C(c2ccccc2)c2ccccc21` [BMS‐906024]: the “increase of Aβ production from the cAPPC100sub” value in the assay on cAPPC100sub (1–4 pM BMS‐906024) was ~ 1.5 fold. Moreover, the IC50 in the assay with cAPPC100sub (setting [1]) was 1.46 nM; with NOTCH, 0.7 to 3.4 nM. In addition, at SPPL2a (40 nM), the “stabilization of CD74 8 kDa NTF P8” value is “greatly stabilized”. Besides, the “rank order of inhibition of cNOTCH2sub” value on cNOTCH2sub is “[2]”.
Take `O=C(O)CC[C@H]1CC[C@@](c2cc(F)ccc2F)(S(=O)(=O)c2ccc(Cl)cc2)CC1` [MK‐0752]: the “low-dose potentiation of cleavage, cAPPC100sub” value (“low-dose potentiation” below) in the assay with cAPPC100sub was “low‐dose potentiation of cleavage was observed”. Moreover, the results for the IC50 in the assay with cAPPC100sub (setting [1]), in the assay with cAPPC100sub (setting [2]) and in the assay on NOTCH were 336 nM, 154 nM and 55 nM, respectively. In addition, the “stabilization of CD74 8 kDa NTF P8” value on SPPL2a (at the tested dose) was “did not show stabilization activity”. Further, on cNOTCH2sub, the “rank order of inhibition of cNOTCH2sub” value was “[5]”.
Take `CCC[C@H](N[C@H]1CCc2cc(F)cc(F)c2C1)C(=O)Nc1cn(C(C)(C)CNCC(C)(C)C)cn1` [PF‐3084014]: the IC50 in the assay with cAPPC100sub (setting [1]) was 2.47 nM; in the assay with cAPPC100sub (setting [2]), 1.34 nM; in the assay on NOTCH, 13.3 nM. Also, the “stabilization of CD74 8 kDa NTF P8” value at SPPL2a (40 nM) is “slightly stabilized”. Also, at cNOTCH2sub, the “rank order of inhibition of cNOTCH2sub” value is “[1]”.
Take `CC(C)(C(=O)NCC(F)(F)C(F)(F)F)C(=O)N[C@@H]1C(=O)Nc2ccccc2-c2ccccc21` [RO4929097]: the “low-dose potentiation” value in the assay on cAPPC100sub is on record as “low‐dose potentiation of cleavage was observed”. The IC50 in the assay with cAPPC100sub (setting [1]) is 26.6 nM; in the assay with cAPPC100sub (setting [2]), 24 nM; with NOTCH, 5 nM. For the same molecule, the “stabilization of CD74 8 kDa NTF P8” value at SPPL2a (40 nM) was “greatly stabilized”. Besides, the “rank order of inhibition of cNOTCH2sub” value on cNOTCH2sub is “[3]”.
`CC(C)[C@H](O)C(=O)N[C@@H](C)C(=O)N[C@@H]1C(=O)N(C)CCc2ccccc21` [Semagacestat]: the “low-dose potentiation” value with cAPPC100sub is “low‐dose potentiation of cleavage was observed”. Besides, the IC50 is 175 nM in the assay on cAPPC100sub (setting [1]), 105 nM in the assay with cAPPC100sub (setting [2]) and 14.1 nM with NOTCH. Besides, the “stabilization of CD74 8 kDa NTF P8” value on SPPL2a (1,000 nM) is given as “weak stabilization”. The “rank order of inhibition of cNOTCH2sub” value on cNOTCH2sub is “[4]”.
